Reference: patent publication US6903132B2, “Non-peptide GnRH agents, pharmaceutical compositions and methods for their use” (Agouron Pharmaceuticals, Inc., priority 2002, dated 2005)
pKi: −log10 of the molar value.

How the values were obtained:
human GnRH receptors = biological target: T1, human GnRH receptors (Homo sapiens, UniProt P30968); assay: Radioligand binding assay: inhibition of binding of 125I-GnRH-A to GnRH receptors (membranes); details: Human GnRH receptor; competition with 125I-GnRH-A; Ki calculated from IC50 (Cheng et al.)
T1 construct: expressed in transfected cells; host or cells: HEK 293
T1 sequence (P30968 1-328): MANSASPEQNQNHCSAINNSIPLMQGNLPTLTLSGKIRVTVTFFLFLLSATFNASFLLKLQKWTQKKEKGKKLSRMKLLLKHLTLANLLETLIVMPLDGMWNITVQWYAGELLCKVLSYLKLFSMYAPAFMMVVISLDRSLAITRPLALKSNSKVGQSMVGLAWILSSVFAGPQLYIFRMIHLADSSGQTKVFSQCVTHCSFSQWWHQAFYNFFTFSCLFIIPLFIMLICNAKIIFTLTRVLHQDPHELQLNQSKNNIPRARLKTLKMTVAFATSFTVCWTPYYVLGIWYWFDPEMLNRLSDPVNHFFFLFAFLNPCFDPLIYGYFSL
Procedure: (§1) HEK 293 cells stably transfected with mouse or human GnRH receptors as described above are grown in Dulbecco's high-glucose, modified Eagle's medium (DMEM) supplemented with 0.2% G418, 10% fetal bovine serum (FBS) and 100U/mL penicillin/streptomycin. GH3 cells stably transfected with the rat GnRH receptor (GGH3) were provided by Dr. William Chin (Harvard Medical School, Boston, Mass.). These cells are extensively characterized previously (Kaiser et al., 1997). The cells are grown in low glucose DMEM containing: 100U/mL penicillin/streptomycin, 0.6% G418 and 10% heat-inactivated FBS.
(§2) HEK 293 cells containing mouse or human receptors, or rat pituitaries (Pel Freez Biologicals, Rogers, Ark.) are homogenized in buffer A containing: 50 mM Tris (pH 7.4), 0.32 M sucrose, 2 mM EGTA, 1 mM PMSF, 5 μg/ml aprotinen, 5 μg/ml Pepstatin A, and 1 μg/ml leupeptin. Homogenized cells are centrifuged at 4° C. at 20,000×g for 25 minutes, re-suspended in buffer A and re-centrifuged at 4° C. at 20,000×g for an additional 25 minutes. Total membrane protein was determined with a BCA kit (Pierce, Rockford, Ill.). Membranes are stored at −70° C. at a final membrane protein concentration of approximately 5 mg/ml.
(§3) The radioiodinated agonist analog of GnRH, [des-Gly^10, D-Ala^6]GnRH ethylamide (^125I-GnRH-A), is used as the radioligand. One μg of GnRH-A diluted in 0.5 M phosphate buffer (pH 7.4) is added to an lodogen®-coated borosilicate glass tube (Pierce, Rockford, Ill.) containing 35 μl of 0.05 M phosphate buffer (pH 7.4-7.6) and 1 mCi of Na[^125I]. The reaction mixture is vortexed and incubated for 1 minute at room temperature. After one minute, the mixture is vortexed and allowed to incubate for an additional minute. 2 ml of 0.5 M acetic acid/1% BSA is added to the reaction tube and the mixture is added to a C18 Sep-Pak cartridge. The cartridge is washed with subsequent washes of 5 ml H2O and 5 ml 0.5 M acetic acid and then eluted with 5×1 ml of 60%CH3CN/40% 0.5 M acetic acid. The eluate is diluted with 3× volume of HPLC buffer A (0.1% TFA in H2O) and loaded onto a C18 column. The iodinated product is eluted over 20-25 min with a gradient of 25-100% CH3CN containing 0.1% TFA. The radioactive fractions (750 μl/fraction) are collected into clean polypropylene tubes containing 100 μl of 10% BSA. Fractions are assessed for biological activity by radiolig and binding. Specific activity of the radioligand was approximately 2200 Ci/mmol.
(§4) Membranes are diluted to 0.01-0.5 mg/ml (depending upon the species of receptor) with assay buffer containing 50 mM HEPES (pH 7.4), 1 mM EDTA, 2.5 mM MgCl2, and 0.1% BSA. Membranes (diluted to utilize similar receptor numbers between assays) are incubated with approximately 0.04-0.06 nM ^125I-GnRH-A in the presence or absence of competing agents (0.1-10,000 nM) in a total volume of 200 μl in 96-well polypropylene plates for 1 hour at room temperature. Assays are stopped by rapid filtration onto 96-well GF/C filters soaked in 0.1% polyethylenimine (PEI) utilizing a Packard 96-well cell harvester. Filters are washed three times with ice-cold PBS (50 mM NaPO4, 0.9% NaCl, 2 mM MgCl2, and 0.02% NaN3, pH 7.4). 35 μl of scintillation cocktail is added to each filter well and filters are counted on a Packard Topcount. Control dose-response curves are generated to GnRH (0.1 nM-100 nM) in each competition binding experiment. Ki values were calculated from IC50 values according to Cheng et al., Biochemical Pharmacol. 22: 3099-3108, 1973. [formula]

rat GnRH receptor = biological target: T2, rat GnRH receptor (Rattus norvegicus, UniProt P30969); assay: as above; details: competition with 125I-GnRH-A, Ki calculated from IC50 (Cheng et al.)
T2 construct: rat pituitaries (Pel Freez Biologicals, Rogers, Ark.) are homogenized in buffer A; tissue Pel Freez Biologicals; host or cells: rat pituitaries
T2 sequence (P30969 1-327): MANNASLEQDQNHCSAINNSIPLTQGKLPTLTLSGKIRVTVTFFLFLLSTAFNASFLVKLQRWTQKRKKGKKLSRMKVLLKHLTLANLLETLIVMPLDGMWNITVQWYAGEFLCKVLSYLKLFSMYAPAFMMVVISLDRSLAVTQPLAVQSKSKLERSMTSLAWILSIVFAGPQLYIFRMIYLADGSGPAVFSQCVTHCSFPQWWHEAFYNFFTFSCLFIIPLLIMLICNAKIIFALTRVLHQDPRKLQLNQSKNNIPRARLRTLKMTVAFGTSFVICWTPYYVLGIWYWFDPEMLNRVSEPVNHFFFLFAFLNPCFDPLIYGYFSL
Procedure: as §1, §2, §3, §4

SMILES | pKi (human GnRH receptors) | pKi (rat GnRH receptor)
Cc1cc2c(cc1Cc1ccc(C(=O)NNc3ncc(C(F)(F)F)cc3Cl)o1)C(C)(C)OC2(C)C [Example E3, N′-[3-chloro-5-(trifluoromethyl)pyridin-2-yl]-5-[(1,1,3,3,6-pentamethyl-1,3-dihydro-2-benzofuran-5-yl)methyl]-2-furohydrazide] | 6.08 | 7.04
Cc1cc2c(cc1Cc1ccc(C(=O)NNc3ccc4ccccc4n3)o1)C(C)(C)OC2(C)C [Example E4, 5-(1,1,3,3,6-Pentamethyl-1,3-dihydro-isobenzofuran-5-ylmethyl)-furan-2-carboxylic acid N′-quinolin-2-yl-hydrazide] | 7.62 | 7.64
Cc1cc2c(cc1Oc1ccc(C(=O)NNc3ncnc4scc(C)c34)o1)C(C)(C)CC(C)C2(C)C (stereo not shown) [Example I15, 5-(3,5,5,6,8,8-Hexamethyl-5,6,7,8-tetrahydro-naphthalen-2-yloxy)-furan-2-carboxylic acid N′-(5-methyl-thieno[2,3-d]pyrimidin-4-yI)-hydrazide] | 8.14 | 7.72
Cc1ccc(N(C)NC(=O)c2ccc(Oc3cc4c(cc3C)C(C)(C)C(C)CC4(C)C)o2)nn1 (stereo not shown) [Example I16, 5-(3,5,5,6,8,8-Hexamethyl-5,6,7,8-etrahydro-naphthalen-2-yloxy)-furan-2-carboxylic acid N′-methyl-N′-(6-methyl-pyridazin-3-yl)-hydrazide] | 8.05 | 7.74
Cc1cc2c(c(Br)c1Oc1ccc(C(=O)NNc3cc(C)c4c(C)nn(C)c4n3)o1)C(C)(C)CC2 [Example I22, 5-(4-Bromo-3,3,6-trimethyl-indan-5-yloxy)-furan-2-carboxylic acid N′-(1,3,4-trimethyl-1H-pyrazolo[3,4-b]pyridin-6-yl)-hydrazide] | 8.00 | 7.28
Cc1cccc(C)c1SCc1ccc(C(=O)NNc2cc(C)c3c(C)nn(C)c3n2)o1 [Example J25, 5-{[(2,6-dimethylphenyl)sulfanyl]methyl}-N′-(1,3,4-trimethyl-1H-pyrazolo[3,4-b]pyridin-6-yl)-2-furohydrazide] | 5.78 | 
Cc1cc2c(cc1Cc1ccc(C(=O)NNc3cc(C)c4c(C)nn(C)c4n3)o1)C(C)(C)CCC2 [Example J26, 5-(3,8,8-Trimethyl-5,6,7,8-tetrahydro-naphthalen-2-ylmethyl)-furan-2-carboxylic acid N′-(1,3,4-trimethyl-1H-pyrazolo[3,4-b]pyridin-6-yl)-hydrazide] | 8.80 | 7.77
Cc1c(C)c(Cc2ccc(C(=O)NNc3cc(C)c4c(C)nn(C)c4n3)o2)c(C)c(Cc2ccc(C(=O)NNc3cc(C)c4c(C)nn(C)c4n3)o2)c1C [Example J29, 3-(2,3,4,6-Tetramethyl-5-{5-[N′-(1,3,4-trimethyl-1H-pyrazolo[3,4-b]pyridin-6-yl)-hydrazinocarbonyl]-furan-2-ylmethyl}-benzyl)-furan-1-carboxylic acid N′-(1,3,4-trimethyl-1H-pyrazolo[3,4-b]pyridin-6-yl)-hydrazide] | 5.28 | 
COc1c(Cl)c(C)c(Cl)c(C)c1Cc1ccc(C(=O)NNc2cc(C)c3c(C)nn(C)c3n2)o1 [Example J30, 5-(3,5-Dichloro-2-methoxy-4,6-dimethyl-benzyl)-furan-2-carboxylic acid N′-(1,3,4-trimethyl-1H-pyrazolo[3,4-b]pyridin-6-yl)-hydrazide] | 6.32 | 
Cc1nc2ccccc2c(Cl)c1Cc1ccc(C(=O)NNc2cc(C)c3c(C)nn(C)c3n2)o1 [Example K1, 5-(4-Chloro-2-methyl-quinolin-3-ylmethyl)-furan-2-carboxylic acid N′-(1,3,4-trimethyl-1H-pyrazolo[3,4-b]pyridin-6-yl)-hydrazide] | 5.35 | 
Cc1cc(NNC(=O)c2ccc(Oc3cc4c(cc3Cl)NC(=O)CC4(C)C)o2)nc2c1c(C)nn2C [Example L1] | 5.68 | 
Cc1cc(NNC(=O)c2ccc(Oc3cc4c(cc3Cl)N(C)C(=O)CC4(C)C)o2)nc2c1c(C)nn2C [Example L2, 5-(7-Chloro-1,4,4-trimethyl-2-oxo-1,2,3,4-tetrahydro-quinolin-6-yloxy)-furan-2-carboxylic acid N′-(1,3,4-trimethyl-1H-pyrazolo[3,4-b]pyridin-6-yl)-hydrazide] | 5.30 | 

More lines, now with the values ahead:

pKi (human GnRH receptors) | pKi (rat GnRH receptor) | SMILES
7.64 | 7.96 | Cc1cc2c(cc1Oc1ccc(C(=O)NNc3ncc(C(F)(F)F)cc3Cl)o1)C(C)(C)C(C)C2(C)C (stereo not shown) [Example M1, 5-(1,1,2,3,3,6-Hexamethyl-indan-5-yloxy)-furan-2-carboxylic acid N′-(chloro-trifluoromethyl-pyridin-2-yl)-hydrazide]
7.72 | 7.54 | Cc1cc2c(cc1Oc1ccc(C(=O)NNc3ccc(C(F)(F)F)cn3)o1)C(C)(C)C(C)C2(C)C (stereo not shown) [Example M2, 5-(1,1,2,3,3,6-Hexamethyl-indan-5-yloxy)-furan-2-carboxylic acid N′-(5-trifluoromethyl-pyridin-2-yl)-hydrazide]
8.39 | 8.54 | Cc1cc2c(cc1Oc1ccc(C(=O)NNc3ccc4ccccc4n3)o1)C(C)(C)C(C)C2(C)C (stereo not shown) [Example M3, 5-(1,1,2,3,3,6-Hexamethyl-indan-5-yloxy)-furan-2-carboxylic acid N′-quinolin-2-yl-hydrazide]
5.94 |  | Cc1cc2c(cc1Oc1ccc(C(=O)NNc3ncc(C(F)(F)F)cc3Cl)o1)C(C)(C)OC2 [Example N1, 5-(3,3,6-Trimethyl-1,3-dihydro-isobenzofuran-5-yloxy)-furan-2-carboxylic acid N′-(chloro-trifluoromethyl-pyridin-2-yl)-hydrazide]
6.89 | 7.00 | Cc1cc2c(cc1Oc1ccc(C(=O)NNc3ccc4ccccc4n3)o1)C(C)(C)OC2 [Example N3, 5-(3,3,6-Trimethyl-1,3-dihydro-isobenzofuran-5-yloxy)-furan-2-carboxylic acid N′-quinolin-2-yl-hydrazide]
5.82 |  | Cc1cc2c(cc1Oc1ccc(C(=O)NNc3ccc(C(F)(F)F)cn3)o1)C(C)(C)OC2 [Example N4, 5-(3,3,6-Trimethyl-1,3-dihydro-isobenzofuran-5-yloxy)-furan-2-carboxylic acid N′-(5-trifluoromethyl-pyridin-2-yl)-hydrazide]
